Reference: publication PMC6211316, “Synthesis and biological evaluation of 3-arylcoumarin derivatives as potential anti-diabetic agents” (Journal of Enzyme Inhibition and Medicinal Chemistry, 2018)

System: STZ-induced diabetic mice
Experiment: Oral glucose tolerance test in STZ-induced diabetic mice
Format: in vivo
Details: 30 mg/kg of bw, glucose 2 g/kg of bw, vs vehicle-treated group (p < 0.05)
Experimental: The target compounds 11, 17, and 35 (30 mg/kg of bw) and control drugs (glibenclamide 10 mg/kg of bw) were dissolved in the vehicle (Tween-80, NaCl 0.9%). Glucose (2 g/kg of bw) was used for the glucose tolerance tests. The control mice group received only the vehicle. All cases were treated orally. Blood samples were collected from caudal vein by means of a small incision in the end of the tail. Blood glucose levels were estimated by a commercial glucometer (Bayer Contour TS). For the anti-hyperglycemic tests, blood samples were obtained 0.5, 1, 1.5, 2, and 3 h after the glucose load. Percentage variation of glycemia for each group was calculated with respect to initial (0 h) level according to: % Variation of glycemia=[(Gi−Gt)/Gi]×100% where Gi is initial glycemia values and Gt is the glycemia value after samples administration. For the anti-hyperglycemic tests, data were represented as % variation of glycemia versus time. Studies were performed in normoglycemic and STZ-induced diabetic mice.

| SMILES | postprandial glycemia peak in oral glucose tolerance test |
| --- | --- |
| O=c1oc2ccc(O)cc2cc1-c1ccc(O)cc1 [Compound 17, 6-Hydroxy-3-(4-hydroxyphenyl)-coumarin] | caused significant decrease in the postprandial glycemia peak |
| COc1ccc(-c2cc3c(O)cc(O)cc3oc2=O)cc1 [Compound 35, 5,7-Dihydroxy-3-(4-methoxyphenyl)-coumarin] | caused significant decrease in the postprandial glycemia peak |
